Test [1] concerns the target T1, CGRP receptors (Homo sapiens, UniProt O60894+Q16602).
T1 construct: SK-N-MC cells were homogenized in 50 mM HEPES buffer, pH 7.4, and membranes were collected by centrifugation; endogenous in cells; host or cells: human SK-N-MC neuroblastoma cells (membranes)
Description: CGRP receptor binding assay (125I human αCGRP, SK-N-MC cell membranes). The text has this: As more fully described in Example 9, these assays, like the amylin receptor binding assay, are competition assays which measure the ability of compounds to bind specifically to certain membrane-bound receptors. Preferred sources of membrane preparations used in these assays are human SK-N-MC neuroblastoma cells and human T47D carcinoma cells to measure binding to CGRP and calcitonin receptors, respectively. Compounds being assayed compete for binding to the CGRP receptor preparations with ^125 I human αCGRP and to the calcitonin receptor preparations with ^125 I salmon calcitonin. Competition curves are analyzed as described for amylin receptor binding assays. The affinity of a compound for the amylin receptor relative to the affinity of the compound for the CGRP and calcitonin receptors determines the selectivity of the compound.
The selectivity of antagonist peptides for the amylin receptor relative to the CGRP and calcitonin receptors was determined by using two in vitro radioligand binding assays and comparing the results obtained to those acquired from the amylin receptor binding assay described in Example 7.
To measure the affinity of the peptides for CGRP receptors, human SK-N-MC neuroblastoma cells were used. […] Van Valen, Piechot & Jurgens, Neuroscience Letters 119:195-198 (1990). SK-N-MC cells were homogenized in 50 mM HEPES buffer, pH 7.4, and membranes were collected by centrifugation for 15 min at 48,000×g. Membranes were suspended at 0.1 to 0.2 mg protein/0.2 ml assay and were incubated in 50 mM HEPES, pH 7.4 containing BSA, bacitracin, and 2 mM MgCl2 with 20 pM ^125 I human αCGRP (labeled at ^10 his, 2000 Ci/mmol) and unlabeled peptide. Additional methods were similar to those described for amylin receptor binding assays in Example 2.

Test [2] has as its system anesthetized rats. Put plainly: Infusion studies: inhibition of amylin-induced changes in plasma glucose, lactate, calcium and blood pressure. To be noted: rat, i.v. 1.5 mg bolus then 3 mg/hr for 1.5 h; amylin 50 μg bolus + 50 μg/hour. The test is classed as in vivo. The protocol:
Briefly, these studies are performed on anesthetized rats as described in International Application Number PCT/US92/00185, "Amylin Activity Assays", published Jul. 22, 1992. At time -0.5 hours, test rats are infused with a 1.5 mg bolus of the antagonist being tested followed by antagonist infusion at 3 mg/hr for a further 1.5 hours. At time 0 hours, a 50 μg bolus of amylin is administered followed by amylin infusion at 50 μg/hr for the remainder of the experiment. In these tests, the capacity of the antagonist to block the hyperglycemic and hyperlactemic effects of amylin are indicated by the inhibition of amylin-evoked increases in plasma glucose and plasma lactate.
Amylin antagonists were evaluated in vivo for their ability to inhibit amylin-induced elevation of plasma glucose and plasma lactate and amylin-evoked depression of plasma calcium and blood pressure. Male Harlan Sprague Dawley rats (age 75-85 days, mass 300-350 g) fasted 18-20 hours were halothane anesthetized and cannulated via the saphenous vein for infusions/injections and via the femoral artery for sampling of glucose/lactate/calcium and for recording arterial pressure. One and a half hours after surgery they were infused with a 1.5 mg intravenous bolus of test antagonist, followed by an infusion of 3 mg/hour for a further 1.5 hours (t=-0.5→+1.0 hr). At t=0 hours (0.5 hours after the start of the primed/continuous antagonist infusion) a 50 μg intravenous bolus of rat amylin was administered followed by an infusion of 50 μg/hour which continued until the end of the experiment. Blood samples were collected every 10 minutes for the first 2 hours of the test (then less frequently),and mean arterial pressure was continuously recorded from t=-0.5→t=+0.5 hours. Control rats, not administered the test substance, were injected with either saline or with primed/continuous amylin at t=0 hours, as described above.

The values that follow come from patent publication US5625032A, “Selective amylin antagonist peptides and uses therefor” (Amylin Pharmaceuticals, Inc., priority 1993, dated 1997).

“Also recorded” adds a separate entry of the source. Peptide text beside a SMILES is read from it.

T1 sequence (Q16602 23-461): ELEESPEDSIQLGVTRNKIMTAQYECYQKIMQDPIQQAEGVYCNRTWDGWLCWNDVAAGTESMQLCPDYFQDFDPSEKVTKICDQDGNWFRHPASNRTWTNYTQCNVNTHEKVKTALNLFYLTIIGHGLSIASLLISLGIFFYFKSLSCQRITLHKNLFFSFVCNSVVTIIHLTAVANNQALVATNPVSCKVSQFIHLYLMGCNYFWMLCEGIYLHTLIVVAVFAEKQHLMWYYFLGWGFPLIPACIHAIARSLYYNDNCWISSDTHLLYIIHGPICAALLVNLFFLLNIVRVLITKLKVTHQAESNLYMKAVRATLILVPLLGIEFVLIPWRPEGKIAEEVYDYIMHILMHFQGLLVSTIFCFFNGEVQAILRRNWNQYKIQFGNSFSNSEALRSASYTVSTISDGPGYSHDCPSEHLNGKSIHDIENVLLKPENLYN
T1 sequence (O60894 27-148): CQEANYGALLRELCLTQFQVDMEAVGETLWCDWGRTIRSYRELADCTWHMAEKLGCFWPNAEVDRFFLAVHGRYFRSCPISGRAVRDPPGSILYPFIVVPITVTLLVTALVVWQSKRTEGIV

In the case of `CC(=O)N[C@@H](C)C(=O)N[C@H](C(=O)N[C@@H](CCC(N)=O)C(=O)N[C@@H](CCCNC(=N)N)C(=O)N[C@@H](CC(C)C)C(=O)N[C@@H](C)C(=O)N[C@@H](CC(N)=O)C(=O)N[C@@H](CCC(=O)O)C(=O)N[C@@H](CC(C)C)C(=O)N[C@H](C(=O)N[C@@H](CCCNC(=N)N)C(=O)N[C@@H](CC(C)C)C(=O)N[C@@H](CCC(N)=O)C(=O)N[C@H](C(=O)N[C@@H](Cc1ccc(O)cc1)C(=O)N1CCC[C@H]1C(=O)N[C@@H](CCCNC(=N)N)C(=O)N[C@H](C(=O)N[C@@H](CC(N)=O)C(=O)N[C@H](C(=O)NCC(=O)N[C@@H](CO)C(=O)N[C@@H](CC(N)=O)C(=O)N[C@H](C(=O)N[C@@H](Cc1ccc(O)cc1)C(N)=O)[C@@H](C)O)C(C)C)[C@@H](C)O)[C@@H](C)O)C(C)C)[C@@H](C)O` [AAP40] (Ac-ATQRLANELVRLQTYPRTNVGSNTY-NH2), the IC50 in test [1] (20 pM 125I human αCGRP) came to 33 nM. For the same compound, the “selectivity for amylin receptors than CGRP receptors” value in test [1] (ratio of CGRP receptor IC50 to amylin receptor IC50) is 66 fold. Besides, in test [2], the “effect on amylin-induced decrease in blood pressure (hypotension)” value is on record as “did not inhibit”, the “effect on amylin-induced decrease in plasma calcium (hypocalcemia)” value was “did not inhibit”, the “effect on amylin-induced increase in plasma glucose (hyperglycemia)” value is “suppressed; also recorded: prevent” and the “effect on amylin-induced increase in plasma lactate (hyperlactemia)” value is recorded as “suppressed; also recorded: prevent”.

As usually defined, the IC50 is the point on the concentration scale where inhibition reaches its midpoint.
